Consider one compound from patent US20210000757A1, “TOPICAL COMPOSITION” (Futura Medical Developments Limited, priority 2017, published 2021).

Each structure is given as a SMILES string.

Data set [1] relates to mitochondrial and cytosolic aldehyde dehydrogenase. The settings on record: in vitro; cited from earlier work.
The nature of data set [2]: Safety and pharmacokinetic study of different GTN concentrations compared with sub-lingual Nitrostat. It counts as in vivo, human.

With `O=[N+]([O-])OCC(CO[N+](=O)[O-])O[N+](=O)[O-]` [GTN, Glyceryl trinitrate], in data set [1], the “time of peak rate of formation of nitric oxide from GTN” value is “approximately 100 seconds”. The “plasma concentration versus dosage level” value in data set [2] (in vivo) is given as “increased proportionally with increasing dosage level”. The Tmax in data set [2] (male, human, in vivo, topical or ocular, pharmacokinetic modelling, topical gel, read-out: Tmax of initial zero order entry into systemic circulation) lay in the range of 10 to 12 min. The “first appearance of GTN after application (lag time)” value in data set [2] (pharmacokinetic modelling, topical gel) is recorded as “around 4 minutes”.
